What was measured:
Experiment in all cases: cells
Details in all cases: Homo sapiens
LS-513 = assay type: functional, cell-based
Description: SANGER: Inhibition of human LS-513 cell growth in a cell viability assay.

SW982 = assay type: functional, cell-based;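 note: growth inhibition of SW982 cells, read out with a cell viability assay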
Description: SANGER: Inhibition of human SW982 cell growth in a cell viability assay.

HT = assay type: functional, cell-based
Description: SANGER: Inhibition of human HT cell growth in a cell viability assay.

IST-MES1 = assay type: functional, cell-based;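 note: growth inhibition of IST-MES1 cells, measured with a cell viability assay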
Description: SANGER: Inhibition of human IST-MES1 cell growth in a cell viability assay.

ALL-PO = assay type: functional, cell-based;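 note: growth inhibition of ALL-PO cells, read out by a cell viability assay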
Description: SANGER: Inhibition of human ALL-PO cell growth in a cell viability assay.

Ramos-2G6-4C10 = assay type: functional, cell-based;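 note: growth inhibition of the cell line, measured by a cell viability read-out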
Description: SANGER: Inhibition of human Ramos-2G6-4C10 cell growth in a cell viability assay.

SK-MEL-1 = assay type: functional, cell-based;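 note: growth inhibition of human SK-MEL-1 cells, read out by a cell viability assay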
Description: SANGER: Inhibition of human SK-MEL-1 cell growth in a cell viability assay.

LU-139 = assay type: functional, cell-based
Description: SANGER: Inhibition of human LU-139 cell growth in a cell viability assay.

MLMA = assay type: functional, cell-based;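 note: growth inhibition of MLMA cells (human), determined through a cell viability readout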
Description: SANGER: Inhibition of human MLMA cell growth in a cell viability assay.

EC-GI-10 = assay type: functional, cell-based
Description: SANGER: Inhibition of human EC-GI-10 cell growth in a cell viability assay.

NCI-H510A = assay type: functional, cell-based;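 note: growth inhibition of NCI-H510A cells, read out with a cell viability assay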
Description: SANGER: Inhibition of human NCI-H510A cell growth in a cell viability assay.

DU-4475 = assay type: functional, cell-based
Description: SANGER: Inhibition of human DU-4475 cell growth in a cell viability assay.

MC116 = assay type: functional, cell-based;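 note: growth inhibition of MC116 cells, read out with a cell viability assay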
Description: SANGER: Inhibition of human MC116 cell growth in a cell viability assay.

ES6 = assay type: functional, cell-based;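 note: growth inhibition of human ES6 cells, read out with a cell viability assay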
Description: SANGER: Inhibition of human ES6 cell growth in a cell viability assay.

KURAMOCHI = assay type: functional, cell-based;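 note: growth inhibition of KURAMOCHI cells, read out with a cell viability assay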
Description: SANGER: Inhibition of human KURAMOCHI cell growth in a cell viability assay.

CW-2 = assay type: functional, cell-based;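 note: growth inhibition of CW-2 cells, read out by a cell viability assay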
Description: SANGER: Inhibition of human CW-2 cell growth in a cell viability assay.

D-502MG = assay type: functional, cell-based
Description: SANGER: Inhibition of human D-502MG cell growth in a cell viability assay.

MHH-PREB-1 = assay type: functional, cell-based;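 note: cell viability assay measuring inhibition of proliferation of human MHH-PREB-1 cells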
Description: SANGER: Inhibition of human MHH-PREB-1 cell growth in a cell viability assay.

JVM-3 = assay type: functional, cell-based;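 note: growth inhibition of human JVM-3 cells, read out with a cell viability assay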
Description: SANGER: Inhibition of human JVM-3 cell growth in a cell viability assay.

CP66-MEL = assay type: functional, cell-based;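 note: growth inhibition of CP66-MEL cells determined in a cell viability assay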
Description: SANGER: Inhibition of human CP66-MEL cell growth in a cell viability assay.

NCI-H1770 = assay type: functional, cell-based;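 note: growth inhibition of NCI-H1770 cells determined with a viability readout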
Description: SANGER: Inhibition of human NCI-H1770 cell growth in a cell viability assay.

DMS-114 = assay type: functional, cell-based
HCC2218 = assay type: functional, cell-based;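 note: cell viability assay read-out, with IC50 given as the concentration that inhibits growth of the cell line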
Description: SANGER: Inhibition of human HCC2218 cell growth in a cell viability assay.

LB771-HNC = assay type: functional, cell-based;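 note: growth inhibition of LB771-HNC human cells, read out with a cell viability assay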
Description: SANGER: Inhibition of human LB771-HNC cell growth in a cell viability assay.

NB69 = assay type: functional, cell-based;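 note: growth inhibition of NB69 cells, determined by a cell viability assay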
Description: SANGER: Inhibition of human NB69 cell growth in a cell viability assay.

SNB-75 = assay type: functional, cell-based;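 note: cell viability assay measuring growth inhibition of human SNB-75 cells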
Description: SANGER: Inhibition of human SNB75 cell growth in a cell viability assay.

SF-539 = assay type: functional, cell-based;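 note: Read-out is a cell viability assay, with IC50 reflecting inhibition of cell growth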
Description: SANGER: Inhibition of human SF539 cell growth in a cell viability assay.

ES1 = assay type: functional, cell-based
Description: SANGER: Inhibition of human ES1 cell growth in a cell viability assay.

CTB-1 = assay type: functional, cell-based
Description: SANGER: Inhibition of human CTB-1 cell growth in a cell viability assay.

U-266 = assay type: functional, cell-based
Description: SANGER: Inhibition of human U-266 cell growth in a cell viability assay.

LU-134-A = assay type: functional, cell-based
Description: SANGER: Inhibition of human LU-134-A cell growth in a cell viability assay.

ES3 = assay type: functional, cell-based;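 note: growth inhibition of ES3 cells, read out with a cell viability assay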
Description: SANGER: Inhibition of human ES3 cell growth in a cell viability assay.

SW 954 = assay type: functional, cell-based;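 note: growth inhibition of SW954 human cancer cells, read out as cell viability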
Description: SANGER: Inhibition of human SW954 cell growth in a cell viability assay.

NH-12 = assay type: functional, cell-based;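 note: growth inhibition of NH-12 cells, read out with a cell viability assay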
Description: SANGER: Inhibition of human NH-12 cell growth in a cell viability assay.

SW684 = assay type: functional, cell-based;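 note: growth inhibition of human SW684 cells, measured by a cell viability assay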
Description: SANGER: Inhibition of human SW684 cell growth in a cell viability assay.

KU812 cell line = assay type: functional, cell-based;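 note: growth inhibition of KU812 cells, read out with a cell viability assay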
Description: SANGER: Inhibition of human KU812 cell growth in a cell viability assay.

RPMI-8226 = assay type: functional, cell-based
Description: SANGER: Inhibition of human RPMI-8226 cell growth in a cell viability assay.

D283 Med = assay type: functional, cell-based
Description: SANGER: Inhibition of human D-283MED cell growth in a cell viability assay.

TGBC24TKB = assay type: functional, cell-based;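 note: growth inhibition of human TGBC24TKB cells, read out with a cell viability assay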
Description: SANGER: Inhibition of human TGBC24TKB cell growth in a cell viability assay.

LB2241-RCC = assay type: functional, cell-based;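 note: cell viability assay measuring how strongly the cultured human renal carcinoma line is prevented from growing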
Description: SANGER: Inhibition of human LB2241-RCC cell growth in a cell viability assay.

697 = assay type: functional, cell-based
Description: SANGER: Inhibition of human 697 cell growth in a cell viability assay.

MV4-11 = assay type: functional, cell-based, MV-4-11;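 note: cell viability readout measuring growth inhibition of human MV-4-11 cells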
Description: SANGER: Inhibition of human MV-4-11 cell growth in a cell viability assay.

MZ2-MEL = assay type: functional, cell-based;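 note: growth inhibition of MZ2-MEL cells read out with a cell viability assay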
Description: SANGER: Inhibition of human MZ2-MEL cell growth in a cell viability assay.

SK-N-FI = assay type: functional, cell-based;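 note: cell viability assay measuring growth inhibition of human SK-N-FI cells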
Description: SANGER: Inhibition of human SK-N-FI cell growth in a cell viability assay.

MOLT-4 = assay type: functional, cell-based;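 note: growth inhibition of MOLT-4 cells, determined with a cell viability readout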
Description: SANGER: Inhibition of human MOLT-4 cell growth in a cell viability assay.

KG-1 = assay type: functional, cell-based;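 note: growth inhibition of KG-1 cells, read out by a cell viability assay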
Description: SANGER: Inhibition of human KG-1 cell growth in a cell viability assay.

GB-1 = assay type: functional, cell-based;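 note: growth of GB-1 cells judged by a viability assay, IC50 marks the concentration inhibiting growth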
Description: SANGER: Inhibition of human GB-1 cell growth in a cell viability assay.

ATN-1 = assay type: functional, cell-based;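 note: growth inhibition of human ATN-1 cells, read out with a cell viability assay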
Description: SANGER: Inhibition of human ATN-1 cell growth in a cell viability assay.

ES7 = assay type: functional, cell-based;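 note: growth inhibition of cultured human ES7 cells, read out as cell viability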
Description: SANGER: Inhibition of human ES7 cell growth in a cell viability assay.

HDLM-2 = assay type: functional, cell-based;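 note: cell viability assay measuring suppression of HDLM-2 proliferation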
Description: SANGER: Inhibition of human HDLM-2 cell growth in a cell viability assay.

OMC-1 = assay type: functional, cell-based;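 note: growth inhibition of the OMC-1 cell line, measured by a cell viability assay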
Description: SANGER: Inhibition of human OMC-1 cell growth in a cell viability assay.

NCI-H1299 = assay type: functional, cell-based;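 note: growth inhibition of human NCI-H1299 cells, read out by a cell viability assay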
Description: SANGER: Inhibition of human NCI-H1299 cell growth in a cell viability assay.

BB30-HNC = assay type: functional, cell-based;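 note: growth inhibition of the cultured cell line, read out by a cell viability assay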
Description: SANGER: Inhibition of human BB30-HNC cell growth in a cell viability assay.

KP-N-YS = assay type: functional, cell-based;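 note: cell viability assay measuring inhibition of cell line growth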
Description: SANGER: Inhibition of human KP-N-YS cell growth in a cell viability assay.

MSTO-211H = assay type: functional, cell-based
Description: SANGER: Inhibition of human MSTO-211H cell growth in a cell viability assay.

J-RT3-T3-5 = assay type: functional, cell-based;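 note: cell viability assay measuring growth inhibition of human J-RT3-T3-5 cells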
Description: SANGER: Inhibition of human J-RT3-T3-5 cell growth in a cell viability assay.

NCI-H446 = assay type: functional, cell-based;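 note: growth inhibition of NCI-H446 cells determined by a cell viability assay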
Description: SANGER: Inhibition of human NCI-H446 cell growth in a cell viability assay.

DMS-79 = assay type: functional, cell-based;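 note: growth inhibition measured with a cell viability assay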
Description: SANGER: Inhibition of human DMS-79 cell growth in a cell viability assay.

SNU1 = assay type: functional, cell-based;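 note: growth inhibition of human NCI-SNU-1 cells, measured with a cell viability assay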
Description: SANGER: Inhibition of human NCI-SNU-1 cell growth in a cell viability assay.

NB13 = assay type: functional, cell-based;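 note: cell viability readout measuring growth inhibition of human NB13 cells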
Description: SANGER: Inhibition of human NB13 cell growth in a cell viability assay.

Becker = assay type: functional, cell-based;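 note: growth inhibition of Becker cells, read out with a cell viability assay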
Description: SANGER: Inhibition of human Becker cell growth in a cell viability assay.

OCI-AML2 = assay type: functional, cell-based;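 note: growth inhibition of OCI-AML2 cells, read out with a cell viability assay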
Description: SANGER: Inhibition of human OCI-AML2 cell growth in a cell viability assay.

ONS-76 = assay type: functional, cell-based;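 note: growth inhibition of human ONS-76 cells, read out with a cell viability assay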
Description: SANGER: Inhibition of human ONS-76 cell growth in a cell viability assay.

GI-1 = assay type: functional, cell-based
Description: SANGER: Inhibition of human GI-1 cell growth in a cell viability assay.

BB65-RCC = assay type: functional, cell-based;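 note: growth inhibition of the cell line, measured with a cell viability assay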
Description: SANGER: Inhibition of human BB65-RCC cell growth in a cell viability assay.

CC(O)(CS(=O)(=O)c1ccc(F)cc1)C(=O)Nc1ccc(C#N)c(C(F)(F)F)c1 (stereo not given) [BICALUTAMIDE]
IC50 (LS-513): > 1.02 µM | IC50 (SW982): > 1.02 µM | IC50 (HT): > 1.02 µM | IC50 (IST-MES1): > 1.02 µM | IC50 (ALL-PO): > 1.02 µM | IC50 (Ramos-2G6-4C10): > 1.02 µM | IC50 (SK-MEL-1): > 1.02 µM | IC50 (LU-139): > 1.02 µM | IC50 (MLMA): > 1.02 µM | IC50 (EC-GI-10): > 1.02 µM | IC50 (NCI-H510A): > 1.02 µM | IC50 (DU-4475): > 1.02 µM | IC50 (MC116): > 1.02 µM | IC50 (ES6): > 1.02 µM | IC50 (KURAMOCHI): > 1.02 µM | IC50 (CW-2): > 1.02 µM | IC50 (D-502MG): > 1.02 µM | IC50 (MHH-PREB-1): > 1.02 µM | IC50 (JVM-3): > 1.02 µM | IC50 (CP66-MEL): > 1.02 µM | IC50 (NCI-H1770): > 1.02 µM | IC50 (DMS-114): > 1.02 µM | IC50 (HCC2218): > 1.02 µM | IC50 (LB771-HNC): > 1.02 µM | IC50 (NB69): > 1.02 µM | IC50 (SNB-75): > 1.02 µM | IC50 (SF-539): > 1.02 µM | IC50 (ES1): > 1.02 µM | IC50 (CTB-1): > 1.02 µM | IC50 (U-266): > 1.02 µM | IC50 (LU-134-A): > 1.02 µM | IC50 (ES3): > 1.02 µM | IC50 (SW 954): > 1.02 µM | IC50 (NH-12): > 1.02 µM | IC50 (SW684): > 1.02 µM | IC50 (KU812 cell line): > 1.02 µM | IC50 (RPMI-8226): > 1.02 µM | IC50 (D283 Med): > 1.02 µM | IC50 (TGBC24TKB): > 1.02 µM | IC50 (LB2241-RCC): > 1.02 µM | IC50 697: > 1.02 µM | IC50 (MV4-11): > 1.02 µM | IC50 (MZ2-MEL): > 1.02 µM | IC50 (SK-N-FI): > 1.02 µM | IC50 (MOLT-4): > 1.02 µM | IC50 (KG-1): > 1.02 µM | IC50 (GB-1): > 1.02 µM | IC50 (ATN-1): > 1.02 µM | IC50 (ES7): > 1.02 µM | IC50 (HDLM-2): > 1.02 µM | IC50 (OMC-1): > 1.02 µM | IC50 (NCI-H1299): > 1.02 µM | IC50 (BB30-HNC): > 1.02 µM | IC50 (KP-N-YS): > 1.02 µM | IC50 (MSTO-211H): > 1.02 µM | IC50 (J-RT3-T3-5): > 1.02 µM | IC50 (NCI-H446): > 1.02 µM | IC50 (DMS-79): > 1.02 µM | IC50 (SNU1): > 1.02 µM | IC50 (NB13): > 1.02 µM | IC50 (Becker): > 1.02 µM | IC50 (OCI-AML2): > 1.02 µM | IC50 (ONS-76): > 1.02 µM | IC50 (GI-1): > 1.02 µM | IC50 (BB65-RCC): > 1.02 µM

COc1cc(Nc2c(C#N)cnc3cc(OCCCN4CCN(C)CC4)c(OC)cc23)c(Cl)cc1Cl [BOSUTINIB]
IC50 (LS-513): > 2 µM | IC50 (SW982): > 2 µM | IC50 (HT): > 2 µM | IC50 (IST-MES1): > 2 µM | IC50 (ALL-PO): > 2 µM | IC50 (Ramos-2G6-4C10): > 2 µM | IC50 (SK-MEL-1): > 2 µM | IC50 (LU-139): > 2 µM | IC50 (MLMA): 0.907 µM | IC50 (EC-GI-10): > 2 µM | IC50 (NCI-H510A): > 2 µM | IC50 (DU-4475): > 2 µM | IC50 (MC116): > 2 µM | IC50 (ES6): > 2 µM | IC50 (KURAMOCHI): > 2 µM | IC50 (CW-2): > 2 µM | IC50 (D-502MG): > 2 µM | IC50 (MHH-PREB-1): > 2 µM | IC50 (JVM-3): 1.05 µM | IC50 (CP66-MEL): > 2 µM | IC50 (NCI-H1770): > 2 µM | IC50 (DMS-114): > 2 µM | IC50 (HCC2218): > 2 µM | IC50 (LB771-HNC): 0.831 µM | IC50 (NB69): > 2 µM | IC50 (SNB-75): > 2 µM | IC50 (SF-539): > 2 µM | IC50 (ES1): 0.675 µM | IC50 (CTB-1): 0.548 µM | IC50 (U-266): > 2 µM | IC50 (LU-134-A): > 2 µM | IC50 (ES3): > 2 µM | IC50 (SW 954): 1.55 µM | IC50 (NH-12): > 2 µM | IC50 (SW684): > 2 µM | IC50 (KU812 cell line): 0.341 µM | IC50 (RPMI-8226): > 2 µM | IC50 (D283 Med): > 2 µM | IC50 (TGBC24TKB): > 2 µM | IC50 (LB2241-RCC): 0.537 µM | IC50 697: 0.456 µM | IC50 (MV4-11): 1.7 µM | IC50 (MZ2-MEL): > 2 µM | IC50 (SK-N-FI): > 2 µM | IC50 (MOLT-4): > 2 µM | IC50 (KG-1): 1.41 µM | IC50 (GB-1): > 2 µM | IC50 (ATN-1): > 2 µM | IC50 (ES7): > 2 µM | IC50 (HDLM-2): > 2 µM | IC50 (OMC-1): > 2 µM | IC50 (NCI-H1299): > 2 µM | IC50 (BB30-HNC): 1.29 µM | IC50 (KP-N-YS): > 2 µM | IC50 (MSTO-211H): > 2 µM | IC50 (J-RT3-T3-5): 1.52 µM | IC50 (NCI-H446): > 2 µM | IC50 (DMS-79): > 2 µM | IC50 (SNU1): > 2 µM | IC50 (NB13): > 2 µM | IC50 (Becker): > 2 µM | IC50 (OCI-AML2): > 2 µM | IC50 (ONS-76): 1.68 µM | IC50 (GI-1): > 2 µM | IC50 (BB65-RCC): 1.9 µM

From ChEMBL document CHEMBL1201861, “Genomics of Drug Sensitity in Cancer screening data, Wellcome Trust Sanger Institute”
